Test results as given in patent US6472348B1, “Pyridone derivatives and herbicides” (Kumiai Chemical Industry Co., Ltd., priority 1996, dated 2002).

Legend:
Format in all cases: in vivo
pale smartweed (Po) [1] = experiment: Test Example 3: herbicidal effects by upland field foliage treatment; design: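 grade of growth control; 5 = at least 90%; 4 = 70 to 90%; 3 = 50 to 70%; 2 = 30 to 50%; 1 = 10 to 30%; 0 = under 10%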
Protocol: (§1) (Test on Herbicidal Effects by Upland Field Foliage Treatment)
(§2) In a plastic pot (surface area: 120 cm^2) filled with sand, barnyardgrass (Ec), Diaitaria ciliaris (Di), pale smartweed (Po), slender amaranth (Am), common lambsquarters (Ch) and rice flatsedge (Ci) were sown and covered with soil and were cultured in a green house for 2 weeks. […] The plants were then cultured in the green house, and the evaluation of the herbicidal effects was conducted on the 14th day after the treatment in accordance with the standards as identified in Table 47. Symbol—represents “not tested”.

Diaitaria ciliaris (Di) = experiment: as above; design: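 grade of growth control; 5 = at least 90%; 4 = 70 to 90%; 3 = 50 to 70%; 2 = 30 to 50%; 1 = 10 to 30%; 0 = under 10%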
Protocol: as §1, §2

[2] = system: common lambsquarters (Ch); experiment: as above; design: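 grade of growth control; 5 = at least 90%; 4 = 70 to 90%; 3 = 50 to 70%; 2 = 30 to 50%; 1 = 10 to 30%; 0 = under 10%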
Protocol: as §1, §2

slender amaranth (Am) [3] = experiment: as above; design: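 grade of growth control; 5 = at least 90%; 4 = 70 to 90%; 3 = 50 to 70%; 2 = 30 to 50%; 1 = 10 to 30%; 0 = under 10%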
Protocol: as §1, §2

barnyardgrass (Ec) [4] = experiment: as above; design: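 grade of growth control; 5 = at least 90%; 4 = 70 to 90%; 3 = 50 to 70%; 2 = 30 to 50%; 1 = 10 to 30%; 0 = under 10%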
Protocol: as §1, §2

rice flatsedge (Ci) [5] = experiment: as above; design: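 grade of growth control; 5 = at least 90%; 4 = 70 to 90%; 3 = 50 to 70%; 2 = 30 to 50%; 1 = 10 to 30%; 0 = under 10%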
Protocol: as §1, §2

pale smartweed (Po) [6] = experiment: Test Example 2: herbicidal effects by upland field soil treatment; settings: 100 g of the active ingredient per 10 ares;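 further: grade of growth control; 5 = at least 90%; 4 = 70 to 90%; 3 = 50 to 70%; 2 = 30 to 50%; 1 = 10 to 30%; 0 = under 10%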
Source text: (§3) (Test on Herbicidal Effects by Upland Field Soil Treatment)

[7] = system: common lambsquarters (Ch); experiment: as above; settings: 100 g of the active ingredient per 10 ares
Source text: as §3

slender amaranth (Am) [8] = experiment: as above; settings: 100 g of the active ingredient per 10 ares
Source text: as §3

barnyardgrass (Ec) [9] = experiment: as above; settings: 100 g of the active ingredient per 10 ares
Source text: as §3

Digitaria ciliaris (Di) = experiment: as above; settings: 100 g of the active ingredient per 10 ares;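 further: grade of growth control; 5 = at least 90%; 4 = 70 to 90%; 3 = 50 to 70%; 2 = 30 to 50%; 1 = 10 to 30%; 0 = under 10%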
Source text: as §3

rice flatsedge (Ci) [10] = experiment: as above; settings: 100 g of the active ingredient per 10 ares
Source text: as §3

bulrush (Sc) = experiment: Test Example 1: herbicidal effects by paddy field soil treatment; settings: 100 g of the active ingredient per 10 ares, 21st day after the application, index 0-5 of Table 47;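 further: grade of growth control; 5 = at least 90%; 4 = 70 to 90%; 3 = 50 to 70%; 2 = 30 to 50%; 1 = 10 to 30%; 0 = under 10%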
Protocol: (§4) (Test on Herbicidal Effects by Paddy Field Soil Treatment)
(§5) In a plastic pot (surface area: 100 cm^2) filled with paddy field soil, barnyardgrass (Ec), monochoria (Mo) and bulrush (Sc) were sown after puddling and leveling, and flooded to a water depth of 3 cm. […] The dose was 100 g of the active ingredient per 10 ares. The plants were then cultured in a green house, and the evaluation of the herbicidal effects was conducted on the 21st day after the application in accordance with the standards as identified in Table 47.

monochoria (Mo) = experiment: as above; settings: 100 g of the active ingredient per 10 ares, 21st day after the application, index 0-5 of Table 47;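 further: grade of growth control; 5 = at least 90%; 4 = 70 to 90%; 3 = 50 to 70%; 2 = 30 to 50%; 1 = 10 to 30%; 0 = under 10%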
Protocol: as §4, §5

barnyardgrass (Ec) [11] = experiment: as above; settings: 100 g of the active ingredient per 10 ares, 21st day after the application, index 0-5 of Table 47
Protocol: as §4, §5

[12] = 100 g of the active ingredient per 10 ares, evaluated on the 14th day after treatment
[13] = 21st day after the application, index 0-5 of Table 47
[14] = 100 g active ingredient per 10 ares, evaluated 14th day after treatment
[15] = evaluated on the 21st day after application

CCCC(Oc1cc(-c2ccc(C(F)(F)F)n(C)c2=O)c(F)cc1Cl)C(=O)OCC (racemic) [1-121]
5: Herbicidal effects Po (pale smartweed (Po) [1]; [12]) | Herbicidal effects Di (Diaitaria ciliaris (Di); [12]) | Herbicidal effects Ch [2, 12] | Herbicidal effects Am (slender amaranth (Am) [3]; [12]) | Herbicidal effects Ec (barnyardgrass (Ec) [4]; [12]) | Herbicidal effects Ci (rice flatsedge (Ci) [5]; [12]) | Herbicidal effects Po (pale smartweed (Po) [6]; [13]) | Herbicidal effects Ch [7, 13] | Herbicidal effects Am (slender amaranth (Am) [8]; [13]) | Herbicidal effects Ec (barnyardgrass (Ec) [9]; [13]) | Herbicidal effects Di (Digitaria ciliaris (Di); [13]) | Herbicidal effects Ci (rice flatsedge (Ci) [10]; [13]) | Herbicidal effects Sc (bulrush (Sc)) | Herbicidal effects Mo (monochoria (Mo)) | Herbicidal effects Ec (barnyardgrass (Ec) [11])

CCOC(=O)C(C)OC(=O)c1cc(-c2ccc(C(F)(F)F)n(C)c2=O)c(F)cc1Cl (racemic) [1-143]
5: Herbicidal effects Po (pale smartweed (Po) [1]; [12]) | Herbicidal effects Di (Diaitaria ciliaris (Di); [12]) | Herbicidal effects Ch [2, 12] | Herbicidal effects Am (slender amaranth (Am) [3]; [12]) | Herbicidal effects Ec (barnyardgrass (Ec) [4]; [12]) | Herbicidal effects Ci (rice flatsedge (Ci) [5]; [12]) | Herbicidal effects Po (pale smartweed (Po) [6]; [13]) | Herbicidal effects Ch [7, 13] | Herbicidal effects Am (slender amaranth (Am) [8]; [13]) | Herbicidal effects Ec (barnyardgrass (Ec) [9]; [13]) | Herbicidal effects Di (Digitaria ciliaris (Di); [13]) | Herbicidal effects Ci (rice flatsedge (Ci) [10]; [13]) | Herbicidal effects Sc (bulrush (Sc)) | Herbicidal effects Mo (monochoria (Mo)) | Herbicidal effects Ec (barnyardgrass (Ec) [11])

Cn1c(C(F)(F)F)ccc(-c2ccc(Cl)cc2Cl)c1=O [1-3]
5: Herbicidal effects Po (pale smartweed (Po) [1]; [12]) | Herbicidal effects Di (Diaitaria ciliaris (Di); [12]) | Herbicidal effects Ch [2, 12] | Herbicidal effects Am (slender amaranth (Am) [3]; [12]) | Herbicidal effects Ec (barnyardgrass (Ec) [4]; [12]) | Herbicidal effects Ci (rice flatsedge (Ci) [5]; [12]) | Herbicidal effects Po (pale smartweed (Po) [6]; [13]) | Herbicidal effects Ch [7, 13] | Herbicidal effects Am (slender amaranth (Am) [8]; [13]) | Herbicidal effects Ec (barnyardgrass (Ec) [9]; [13]) | Herbicidal effects Di (Digitaria ciliaris (Di); [13]) | Herbicidal effects Ci (rice flatsedge (Ci) [10]; [13]) | Herbicidal effects Sc (bulrush (Sc)) | Herbicidal effects Mo (monochoria (Mo)) | Herbicidal effects Ec (barnyardgrass (Ec) [11])

CCOC(=O)C(C)Oc1cc(-c2ccc(C(F)(F)F)n(C)c2=O)c(F)cc1Cl (stereo not drawn) [1-21]
5: Herbicidal effects Po (pale smartweed (Po) [1]; [12]) | Herbicidal effects Di (Diaitaria ciliaris (Di); [12]) | Herbicidal effects Ch [2, 12] | Herbicidal effects Am (slender amaranth (Am) [3]; [12]) | Herbicidal effects Ec (barnyardgrass (Ec) [4]; [12]) | Herbicidal effects Ci (rice flatsedge (Ci) [5]; [12]) | Herbicidal effects Po (pale smartweed (Po) [6]; [13]) | Herbicidal effects Ch [7, 13] | Herbicidal effects Am (slender amaranth (Am) [8]; [13]) | Herbicidal effects Ec (barnyardgrass (Ec) [9]; [13]) | Herbicidal effects Di (Digitaria ciliaris (Di); [13]) | Herbicidal effects Ci (rice flatsedge (Ci) [10]; [13]) | Herbicidal effects Sc (bulrush (Sc)) | Herbicidal effects Mo (monochoria (Mo)) | Herbicidal effects Ec (barnyardgrass (Ec) [11])

COCOc1cc(-c2ccc(C(F)(F)F)n(C)c2=O)c(F)cc1Cl [1-24]
5: Herbicidal effects Po (pale smartweed (Po) [1]; [12]) | Herbicidal effects Di (Diaitaria ciliaris (Di); [12]) | Herbicidal effects Ch [2, 12] | Herbicidal effects Am (slender amaranth (Am) [3]; [12]) | Herbicidal effects Ec (barnyardgrass (Ec) [4]; [12]) | Herbicidal effects Ci (rice flatsedge (Ci) [5]; [12]) | Herbicidal effects Po (pale smartweed (Po) [6]; [13]) | Herbicidal effects Ch [7, 13] | Herbicidal effects Am (slender amaranth (Am) [8]; [13]) | Herbicidal effects Ec (barnyardgrass (Ec) [9]; [13]) | Herbicidal effects Di (Digitaria ciliaris (Di); [13]) | Herbicidal effects Ci (rice flatsedge (Ci) [10]; [13]) | Herbicidal effects Sc (bulrush (Sc)) | Herbicidal effects Mo (monochoria (Mo)) | Herbicidal effects Ec (barnyardgrass (Ec) [11])

CCCN1C(=O)COc2cc(F)c(-c3ccc(C(F)(F)F)n(C)c3=O)cc21 [Compound 2-10]
5: Herbicidal effects Po (pale smartweed (Po) [1]; [14]) | Herbicidal effects Di (Diaitaria ciliaris (Di); [14]) | Herbicidal effects Ch [2, 14] | Herbicidal effects Am (slender amaranth (Am) [3]; [14]) | Herbicidal effects Ec (barnyardgrass (Ec) [4]; [14]) | Herbicidal effects Ci (rice flatsedge (Ci) [5]; [14]) | Herbicidal effects Po (pale smartweed (Po) [6]; [15]) | Herbicidal effects Ch [7, 15] | Herbicidal effects Am (slender amaranth (Am) [8]; [15]) | Herbicidal effects Ec (barnyardgrass (Ec) [9]; [15]) | Herbicidal effects Di (Digitaria ciliaris (Di); [15]) | Herbicidal effects Ci (rice flatsedge (Ci) [10]; [15])

Cn1c(C(F)(F)F)ccc(-c2cc3c(cc2F)OCC(=O)N3CC=CCl)c1=O [Compound 2-14]
5: Herbicidal effects Po (pale smartweed (Po) [1]; [14]) | Herbicidal effects Di (Diaitaria ciliaris (Di); [14]) | Herbicidal effects Ch [2, 14] | Herbicidal effects Am (slender amaranth (Am) [3]; [14]) | Herbicidal effects Ec (barnyardgrass (Ec) [4]; [14]) | Herbicidal effects Ci (rice flatsedge (Ci) [5]; [14]) | Herbicidal effects Po (pale smartweed (Po) [6]; [15]) | Herbicidal effects Ch [7, 15] | Herbicidal effects Am (slender amaranth (Am) [8]; [15]) | Herbicidal effects Ec (barnyardgrass (Ec) [9]; [15]) | Herbicidal effects Di (Digitaria ciliaris (Di); [15]) | Herbicidal effects Ci (rice flatsedge (Ci) [10]; [15])
